Data as given in PMC7126831 (Bioorganic & Medicinal Chemistry, 2013).

What follows are compounds tested against SARS-CoV PLpro (Severe acute respiratory syndrome coronavirus, UniProt P0C6U8) (assay: biochemical).
Type: biochemical
With `COc1cc([C@@H]2CC(=O)c3c(cc4c(c3O)CCC(C)(CCCC(C)(C)O)O4)O2)cc(O)c1OC` (stereo partly drawn) [Compound 3, (2S)-5-hydroxy-2-(5-hydroxy-3,4-dimethoxyphenyl)-8-(4-hydroxy-4-methylpentyl)-8-methyl-2,3,7,8-tetrahydropyrano[3,2-g]chromen-4(6H)-one] the Kinetic mode was “Mixed (5.0)”.
In the case of `COc1cc([C@H]2Oc3cc4c(c(O)c3C(=O)[C@@H]2O)CCC(C)(CCCC(C)(C)O)O4)ccc1O` (stereo partly drawn) [Compound 5, (2R,3R)-3,5-dihydroxy-2-(4-hydroxy-3-methoxyphenyl)-8-(4-hydroxy-4-methylpentyl)-8-methyl-2,3,7,8-tetrahydropyrano[3,2-g]chromen-4(6H)-one], the Kinetic mode is reported as “Mixed (3.7)”.
`COc1cc(C2CC(=O)c3c(cc(O)c(C/C=C(\C)CCC=C(C)C)c3O)O2)cc(OC)c1O` (centres unmarked) [Compound 12, 6-geranyl-4′,5,7-trihydroxy-3′,5′-dimethoxyflavanone] was tested, and the IC50 was 13.9 ± 0.18 µM.
In the case of `COc1cc([C@@H]2CC(=O)c3c(cc4c(c3O)CCC(C)(CCCC(C)(C)O)O4)O2)cc(OC)c1O` (stereo partly drawn) [Compound 4, (2S)-5-hydroxy-2-(4-hydroxy-3,5-dimethoxyphenyl)-8-(4-hydroxy-4-methylpentyl)-8-methyl-2,3,7,8-tetrahydropyrano[3,2-g]chromen-4(6H)-one], the Kinetic mode is reported as “Mixed (13.0)”.
In the case of `COc1ccc([C@H]2Oc3cc(O)c(C/C=C(\C)CCC=C(C)C)c(O)c3C(=O)[C@@H]2O)cc1O` [Compound 7, 4′-O-methyldiplacol], the Kinetic mode is reported as “Mixed (6.3)”.
With `COc1cc([C@@H]2CC(=O)c3c(cc(O)c(C/C=C(\C)CCC=C(C)C)c3O)O2)ccc1O` [Compound 8, 3′-O-methyldiplacone] the Kinetic mode was “Mixed (7.1)”.
`COc1cc([C@H]2Oc3cc(O)c(C/C=C(\C)CCC=C(C)C)c(O)c3C(=O)[C@@H]2O)ccc1O` [Compound 6, 3′-O-methyldiplacol] was tested, and the Kinetic mode was “Mixed (6.6)”.
With `CC(C)(O)CCCC1(C)CCc2c(cc3c(c2O)C(=O)C[C@@H](c2ccc(O)c(O)c2)O3)O1` (stereo partly drawn) [Compound 1, (2S)-2-(3,4-dihydroxyphenyl)-5-hydroxy-8-(4-hydroxy-4-methylpentyl)-8-methyl-2,3,7,8-tetrahydropyrano[3,2-g]chromen-4(6H)-one] the Kinetic mode was “Mixed (4.8)”.
